These results are taken from patent US11648242B2, “Pharmaceutical composition comprising pimavanserin, process of preparation and use thereof” (Aurobindo Pharma Ltd., priority 2019, dated 2023).

A short description of data set [1]: Particle size distribution (D90) of the API. It counts as physicochemical. The following applies: native amorphous pimavanserin tartrate API.
Another data set is described as follows: Bulk density of the API. The settings on record: native amorphous pimavanserin tartrate API. It counts as physicochemical.
The conditions of data set [2]: cited from earlier work.

Structures can show the parent of a compound that is named as a salt.

For the molecule `CC(C)COc1ccc(CNC(=O)N(Cc2ccc(F)cc2)C2CCN(C)CC2)cc1` [native amorphous pimavanserin tartrate], the “Particle size distribution of API (D90)” value in data set [1] is listed as “about 100 μm”. For the same molecule, in the data set “Bulk density of the API”, the Bulk density came out at 0.374 g/mL.
In the case of `CC(C)COc1ccc(CNC(=O)N(Cc2ccc(F)cc2)C2CCN(C)CC2)cc1` [Pimavanserin tartrate, urea, N-[(4-fluorophenyl)methyl]-N-(1-methyl-4-piperidinyl)-N′-[[4-(2methylpropoxy)phenyl]methyl]-, (2R, 3R)-2,3-dihydroxybutanedioate (2:1)], the Solubility in water entry in data set [2] is “freely soluble”.
